{"source": "patent US20080044455A1", "about": "“Tonsillitus Treatment” (priority 2006, published 2008)", "system": "tonsils, throat and back of the mouth", "assay": "topical application of lactic acid (diluted in a liquid carrier such as juice) to tonsils, throat and back of the mouth", "format": "in vivo, human", "experimental": "In one aspect, a mixture of 10% by volume of pharmaceutical lactic acid is mixed with 90% by volume liquid carrier, such as juice, and the mixture is ingested 3 times a day for a month at a dosage of one teaspoon (approximately 0.005 liters) per application. After a two week pause, the patient is evaluated for the reduction in size of the tonsils. […] The number of applications per day can be reduced to two times a day, in the event that it is hard to implement with the patient, thus extending the duration of the treatment by 10 days.\nIn one aspect, the mixture or solution is ingested, such as by repeatedly drinking, as at step 50, over a period of time such as a week, to topically apply the mixture or solution constituents to the surfaces of the tonsils, throat and/or mouth, at least twice, with a duration of time between the two applications."}
{"smiles": "CC(O)C(=O)O", "note": "(stereo not drawn) [lactic acid, Lactic Acid]", "values": [{"measurement": "size of the tonsils", "setting": "topical application to tonsils, throat and mouth", "result": "reduction of the size of the tonsils"}, {"measurement": "recurrence of the inflammation and infection causing the inflammation", "setting": "topical application, lactic acid diluted in a liquid carrier such as a juice", "result": "reduction in the recurrence of the inflammation and infection"}, {"measurement": "inflammation and pain in the treated areas", "setting": "topical application, lactic acid diluted in a liquid carrier such as a juice, drunk or otherwise applied", "result": "reduction of both inflammation and pain in the treated areas"}]}
